Structures can show the parent of a compound that is named as a salt.
Tests used:
Assay type in all cases: physicochemical
[1] = Measurement of moisture absorption (automatic gas and vapor adsorption analyzer); conditions: BELSORP Aqua3 automatic gas and vapor adsorption analyzer
Description: Regarding the crystals B and C, the moisture absorption was measured by using an automatic gas and vapor adsorption analyzer (BELSORP Aqua3 manufactured by MicrotracBEL Corp.)

[2] = Measurement of solubility at pH 6.9 (saturated solution, HPLC); conditions: second dissolution test solution (pH 6.9), shaken at 20° C. for 24 hours, filtrate determined by HPLC
Description: Specifically, the crystal B can achieve a solubility at pH 6.9 of 50 μg/ml or more. Here, the solubility at pH 6.9 is measured by HPLC analysis. Specifically, the solubility at pH 6.9 can be measured in the method described below in Examples.
Regarding the crystals B and C, the solubility at pH 6.9 was measured. Specifically, a sample was excessively added to a second dissolution test solution (pH 6.9) (manufactured by Kanto Chemical Co., Inc.), and the mixture was shaken at 20° C. for 24 hours to produce a saturated solution. After the undissolved sample was removed with a filter, the amount of the compound in the filtrate was determined by HPLC, and the solubility […] was calculated.

[3] = Deliquescence on standing at 60% RH and 25° C.; conditions: left in an environment of 60% RH and 25° C.; initially white powder
Description: In reference to the description on page 56 in Patent Literature 1 (International Publication No. WO2017/135472), the compound 10-BoC was deprotected. Specifically, the compound 10-BoC was dissolved in ethyl acetate and the reaction liquid was cooled to 5° C. After that, a hydrochloric acid/ethyl acetate solution was added dropwise thereto, followed by stirring at 20° C. for 16 hours. After that, the solid was filtered out and dried under reduced pressure to obtain a compound 16-HCl (a hydrochloric acid salt of the compound 16). The obtained compound was initially white powder, but when left in an environment of 60% RH and 25° C., was completely deliquesced within 24 hours.

Cc1cc(=O)n(-c2ccc(C[C@H](NC(=O)c3cc(F)c(NS(=O)(=O)c4ccc(NC(=O)C(C)(C)C)cc4)cc3F)C(=O)OCC(C)C)cn2)c(=O)n1C [crystal B, isobutyl(S)-2-(2,5-difluoro-4-((4-pivalamidophenyl)sulfonamido)benzamide)-3-(6-(3,4-dimethyl-2,6-dioxo-3,6-dihydropyrimidin-1(2H)-yl)pyridin-3-yl)propanoate]
moisture absorption (at maximum) [1]: ≤ 1.35% | solubility at pH 6.9 [2]: 150 μg/ml

Cc1cc(=O)n(-c2ccc(C[C@H](NC(=O)c3cc(F)c(NS(=O)(=O)c4ccc(NC(=O)C(C)(C)C)cc4)cc3F)C(=O)OCC(C)C)cn2)c(=O)n1C [crystal C, isobutyl(S)-2-(2,5-difluoro-4-((4-pivalamidophenyl)sulfonamido)benzamide)-3-(6-(3,4-dimethyl-2,6-dioxo-3,6-dihydropyrimidin-1(2H)-yl)pyridin-3-yl)propanoate]
moisture absorption (at maximum) [1]: ≤ 0.24% | solubility at pH 6.9 [2]: 25.0 μg/ml

Cc1cc(=O)n(-c2ccc(C[C@H](N)C(=O)OCC(C)C)cn2)c(=O)n1C [compound 16-HCl]
time until completely deliquesced [3]: ≤ 24 h

— patent US20240262805A1, “METHOD FOR PRODUCING COMPOUND OR PHARMACEUTICALLY ACCEPTABLE SALT THEREOF” (EA PHARMA CO., LTD., priority 2021, published 2024)
